Assay results: PMC7168327, “Designed Antimicrobial Peptides for Topical Treatment of Antibiotic Resistant Acne Vulgaris” (Antibiotics, 2020)
Values after ≈ are worked out from the molar mass of the structure shown. Values joined by “and” are separate entries in the source; they are usually repeats but may differ in a detail not shown here. Equal entries are not always repeated. Where two headings read alike, the source gives them in different places. Bridge positions count the residues as written; N and C are the ends. Square brackets hold non-standard residues; d marks the D form. Peptide text beside a SMILES is read from it. Orn = NCCC[C@H](N)C(=O)O

Tests used:
[1] = test system: C. acnes HL045PA1; conditions: cited from earlier work
Description: (§1) Table 1 Growth Inhibition of dAMPs (MICs, µg/mL) against C. acnes Isolates. | column: Antibiotic Sensitivity / Tetra ^#; Antibiotic Sensitivity / Ery ^#; Antibiotic Sensitivity / Clind ^#

[2] = test system: C. acnes HL072PA1; conditions: cited from earlier work
Description: as §1

[3] = test system: C. acnes HL082PA2; conditions: cited from earlier work
Description: as §1

[4] = test system: C. acnes HL007PA1; conditions: cited from earlier work
Description: as §1

[5] = test system: C. acnes HL043PA1; conditions: cited from earlier work
Description: as §1

[6] = test system: C. acnes HL013PA1; conditions: cited from earlier work
Description: as §1

[7] = test system: C. acnes HL043PA2; conditions: cited from earlier work
Description: as §1

[8] = test system: C. acnes ATCC11827; conditions: cited from earlier work
Description: as §1

[9] = test system: C. acnes HL038PA1; conditions: cited from earlier work
Description: as §1

[10] = test system: C. acnes HL053PA1; conditions: cited from earlier work
Description: as §1

[11] = test system: C. acnes ATCC6919; conditions: cited from earlier work
Description: as §1

[12] = test system: C. acnes HL056PA1; conditions: cited from earlier work
Description: as §1

[13] = test system: C. acnes HL045PA1; assay type: cell-based, Cutibacterium acnes
Procedure: (§2) The ten antibiotic resistant C. acnes clinical isolates were acquired from BEI resources with the two reference strains obtained from American Type Culture Collection (ATCC, Manassas, VA, USA). C. acnes is a relatively slow-growing, typically aerotolerant anaerobic so all in vitro C. acnes experiments were performed under anaerobic conditions.
(§3) Single colonies were inoculated in Reinforced Clostridium Medium (RCM) broth supplemented with sodium thioglycolate and incubated at 37 °C, with shaking at 200 rpm, for 2 or 3 days to reach logarithmic growth (OD600nm = 1.0). Each C. acnes (1 × 10^6 CFU per mL) was incubated with dAMP or clindamycin at two-fold serial dilutions (0.5–32 μg per mL) in RCM on a 96-well microplate for 48 h. Three replicas were included for each test article concentration. Bacterial growth was measured by optical density at 600 nm to determine the MIC for each dAMP applied.

[14] = test system: C. acnes HL072PA1; assay type: cell-based, Cutibacterium acnes
Procedure: as §2, §3

[15] = test system: C. acnes HL082PA2; assay type: cell-based, Cutibacterium acnes
Procedure: as §2, §3

[16] = test system: C. acnes HL007PA1; assay type: cell-based, Cutibacterium acnes
Procedure: as §2, §3

[17] = test system: C. acnes HL043PA1; assay type: cell-based, Cutibacterium acnes
Procedure: as §2, §3

[18] = test system: C. acnes HL013PA1; assay type: cell-based, Cutibacterium acnes
Procedure: as §2, §3

[19] = test system: C. acnes HL043PA2; assay type: cell-based, Cutibacterium acnes
Procedure: as §2, §3

[20] = test system: C. acnes ATCC11827; assay type: cell-based, Cutibacterium acnes
Procedure: as §2, §3

[21] = test system: C. acnes HL038PA1; assay type: cell-based, Cutibacterium acnes
Procedure: as §2, §3

[22] = test system: C. acnes HL053PA1; assay type: cell-based, Cutibacterium acnes
Procedure: as §2, §3

[23] = test system: ten C. acnes clinical isolates and two C. acnes ATCC reference strains; assay type: cell-based, Cutibacterium acnes; conditions: for in vitro anti-bacterial activity against the C. acnes bacterial strains (in words): 0.5–32 μg/mL concentration range evaluated
Procedure: as §2, §3

[24] = test system: C. acnes ATCC6919; assay type: cell-based, Cutibacterium acnes
Procedure: as §2, §3

[25] = test system: C. acnes HL056PA1; assay type: cell-based, Cutibacterium acnes
Procedure: as §2, §3

[26] = test system: C. acnes HL043PA2 compared to human keratinocytes; assay type: cell-based
Procedure: In evaluating the clinical utility of each of the candidate dAMPs for C. acnes treatment, the Therapeutic Index was determined. The Therapeutic Index is defined as the ratio of concentration at which the dAMP is active against the prokaryotic C. acnes pathogen without inducing cytotoxic damage to the surrounding mammalian cells. The EC10 and EC50 doses, defined as the concentrations required to kill 10% and 50% respectively of human keratinocytes following 8 h incubation with each of the Riptide dAMPs, are tabulated and graphed in Table 2 and Figure 3, respectively. The larger the Therapeutic Index, the greater the specificity of the dAMP for destroying C. acnes cells.
as §3
(§4) Noninvasive and real-time monitoring of mammalian cytotoxicity to assess the potential skin toxicity of the dAMPs was evaluated using bioluminescent human immortalized keratinocytes (HaCaT, AddexBio, San Diego, CA, USA). The bioluminescent variant of HaCaT was constructed by transfection with a luciferase gene (RediFect Red-Fluc-Puromycin, Cat# CL596002). Keratinocytes (1 × 10^4 cells, 100 μL) were plated in 96-well black-walled plates. The candidate dAMPs were 2-fold serially diluted from 1024 µg/mL in growth medium supplemented with 150 µg/mL D-luciferin. Each concentration was performed in triplicate, with the final volume being 200 μL. Imaging was performed at select times (0, 15, and 30 min and 1, 3, 5, and 8 h) after the addition of the dAMP, and compared to concurrently run vehicle-control, using an IVIS Lumina imaging system (Caliper Life Sciences, Inc., Hopkinton, MA, USA). For imaging, the 96-well plate was positioned on the stage (12.5-cm field of view), with an open emission filter, binning of 4, and f-stop 1 and a 1-min exposure time. Data analysis was performed using the Living Image software program (version 4.3, Caliper Life Sciences, Inc.). The dAMP concentrations required to kill 10% and 50% of keratinocytes were determined using GraphPad Prism 7 (GraphPad Software, San Diego, CA, USA).

[27] = test system: bioluminescent human immortalized keratinocytes (HaCaT); test: Mammalian cytotoxicity, bioluminescent human keratinocytes; assay type: cell-based
Procedure: as §4

CC[C@H]1OC(=O)[C@H](C)[C@@H](O[C@H]2C[C@@](C)(OC)[C@@H](O)[C@H](C)O2)[C@H](C)[C@@H](O[C@@H]2O[C@H](C)C[C@H](N(C)C)[C@H]2O)[C@](C)(O)C[C@@H](C)C(=O)[C@H](C)[C@@H](O)[C@]1(C)O [Ery, erythromycin]
Antibiotic Sensitivity, Ery [1]: R (erythromycin resistance MIC ≥ 0.5 μg/mL) | Antibiotic Sensitivity, Ery [2]: R (erythromycin resistance MIC ≥ 0.5 μg/mL) | Antibiotic Sensitivity, Ery [3]: R (erythromycin resistance MIC ≥ 0.5 μg/mL) | Antibiotic Sensitivity, Ery [4]: R (erythromycin resistance MIC ≥ 0.5 μg/mL) | Antibiotic Sensitivity, Ery [5]: R (erythromycin resistance MIC ≥ 0.5 μg/mL) | Antibiotic Sensitivity, Ery [6]: R (erythromycin resistance MIC ≥ 0.5 μg/mL) | Antibiotic Sensitivity, Ery [7]: R (erythromycin resistance MIC ≥ 0.5 μg/mL) | Antibiotic Sensitivity, Ery [8]: S (S, sensitive) | Antibiotic Sensitivity, Ery [9]: R (erythromycin resistance MIC ≥ 0.5 μg/mL) | Antibiotic Sensitivity, Ery [10]: R (erythromycin resistance MIC ≥ 0.5 μg/mL) | Antibiotic Sensitivity, Ery [11]: S (S, sensitive) | Antibiotic Sensitivity, Ery [12]: R (erythromycin resistance MIC ≥ 0.5 μg/mL)

CC[C@H](C)[C@@H]1NC(=O)CNC(=O)[C@H](CCCCN)NC(=O)[C@H](Cc2ccc(O)cc2)NC(=O)[C@@H]2CSSC[C@H](NC1=O)C(=O)N[C@@H](Cc1ccccc1)C(=O)N[C@@H](CCCCN)C(=O)N[C@@H](CCCCN)C(=O)N[C@H](C(=O)N[C@@H](CCCCN)C(N)=O)CSSC[C@H](NC(=O)[C@H](Cc1ccccc1)NC(=O)[C@@H](N)CCCNC(=N)N)C(=O)N[C@@H](Cc1c[nH]c3ccccc13)C(=O)N[C@@H](CCCCN)C(=O)N[C@@H](C(C)C)C(=O)N2 [RP557] (H-RFCWKVCYKGICFKKCK-NH2; disulfide 3-16, 7-12)
MIC ([13]; C. acnes HL045PA1, RCM broth, anaerobic, 1 × 10^6 CFU per mL, two-fold dilutions 0.5–32 μg/mL, 48 h, OD 600 nm, mean of three replicates): 4 µg/mL (≈ 1.87 µM) | MIC ([14]; C. acnes HL072PA1, RCM broth, anaerobic, 1 × 10^6 CFU per mL, two-fold dilutions 0.5–32 μg/mL, 48 h, OD 600 nm, mean of three replicates): 8 µg/mL (≈ 3.75 µM) | MIC ([15]; C. acnes HL082PA2, RCM broth, anaerobic, 1 × 10^6 CFU per mL, two-fold dilutions 0.5–32 μg/mL, 48 h, OD 600 nm, mean of three replicates): 2 µg/mL (≈ 0.936 µM) | MIC ([16]; C. acnes HL007PA1, RCM broth, anaerobic, 1 × 10^6 CFU per mL, two-fold dilutions 0.5–32 μg/mL, 48 h, OD 600 nm, mean of three replicates): 8 µg/mL (≈ 3.75 µM) | MIC ([17]; C. acnes HL043PA1, RCM broth, anaerobic, 1 × 10^6 CFU per mL, two-fold dilutions 0.5–32 μg/mL, 48 h, OD 600 nm, mean of three replicates): 8 µg/mL (≈ 3.75 µM) | MIC ([18]; C. acnes HL013PA1, RCM broth, anaerobic, 1 × 10^6 CFU per mL, two-fold dilutions 0.5–32 μg/mL, 48 h, OD 600 nm, mean of three replicates): 2 µg/mL (≈ 0.936 µM) | MIC ([19]; C. acnes HL043PA2 (multi-drug resistant), RCM broth, anaerobic, 1 × 10^6 CFU per mL, two-fold dilutions 0.5–32 μg/mL, 48 h, OD 600 nm, mean of three replicates): 8 µg/mL (≈ 3.75 µM) | MIC ([20]; C. acnes ATCC11827, RCM broth, anaerobic, 1 × 10^6 CFU per mL, two-fold dilutions 0.5–32 μg/mL, 48 h, OD 600 nm, mean of three replicates): 8 µg/mL (≈ 3.75 µM) | MIC ([21]; C. acnes HL038PA1, RCM broth, anaerobic, 1 × 10^6 CFU per mL, two-fold dilutions 0.5–32 μg/mL, 48 h, OD 600 nm, mean of three replicates): 8 µg/mL (≈ 3.75 µM) | MIC ([22]; C. acnes HL053PA1, RCM broth, anaerobic, 1 × 10^6 CFU per mL, two-fold dilutions 0.5–32 μg/mL, 48 h, OD 600 nm, mean of three replicates): 4 µg/mL (≈ 1.87 µM) | in vitro anti-bacterial activity against the C. acnes bacterial strains (in words) [23]: most active | MIC values against all C. acnes isolates ([23]; span over ten antibiotic resistant isolates and two ATCC reference strains): 2 to 8 µg/mL | MIC ([24]; C. acnes ATCC6919, RCM broth, anaerobic, 1 × 10^6 CFU per mL, two-fold dilutions 0.5–32 μg/mL, 48 h, OD 600 nm, mean of three replicates): 8 µg/mL (≈ 3.75 µM) | MIC ([25]; C. acnes HL056PA1, RCM broth, anaerobic, 1 × 10^6 CFU per mL, two-fold dilutions 0.5–32 μg/mL, 48 h, OD 600 nm, mean of three replicates): 4 µg/mL (≈ 1.87 µM) | Therapeutic Index (EC10 / MIC) ([26]; keratinocyte EC10 (8 h) versus MIC against HL043PA2 C. acnes): 30.8 | Therapeutic Index (EC50 / MIC) ([26]; keratinocyte EC50 (8 h) versus MIC against HL043PA2 C. acnes): 35 and 35.1 | viability of human keratinocytes ([27]; 8 h incubation at 256 μg/mL, bioluminescent HaCaT): greater than 80% | EC10, concentration required to kill 10% of human keratinocytes ([27]; bioluminescent HaCaT, 1 × 10^4 cells/well, 8 h incubation, 2-fold dilutions from 1024 µg/mL, triplicate, IVIS imaging, GraphPad Prism 7): 246 µg/mL

CC[C@H](C)[C@H](NC(=O)[C@H](Cc1ccccc1)NC(=O)[C@H](CCCN)NC(=O)[C@H](CCCCN)NC(=O)[C@H](Cc1ccccc1)NC(=O)[C@H](CCCN)NC(=O)[C@H](CCCCN)NC(=O)[C@H](C)NC(=O)[C@H](Cc1ccccc1)NC(=O)[C@H](CCCCN)NC(=O)[C@H](CCCN)NC(=O)[C@@H](NC(=O)[C@@H](N)Cc1ccccc1)[C@@H](C)CC)C(=O)N[C@@H](CCCN)C(=O)N[C@@H](CCCCN)C(=O)N[C@@H](Cc1ccccc1)C(=O)N[C@@H](C)C(=O)N[C@@H](CCCCN)C(=O)N[C@@H](Cc1ccccc1)C(=O)N[C@@H](C)C(=O)N[C@@H](Cc1ccccc1)C(=O)N[C@@H](C)C(=O)N[C@@H](Cc1ccccc1)C(N)=O [RP551] (H-FI[Orn]KFAK[Orn]FK[Orn]FI[Orn]KFAKFAFAF-NH2)
MIC ([13]; HL045PA1, 48 h): 2 µg/mL (≈ 0.714 µM) | MIC ([14]; HL072PA1, 48 h): 2 to 4 µg/mL | MIC ([15]; HL082PA2, 48 h): 2 µg/mL (≈ 0.714 µM) | MIC ([16]; HL007PA1, 48 h): 2 µg/mL (≈ 0.714 µM) | MIC ([17]; HL043PA1, 48 h): 2 µg/mL (≈ 0.714 µM) | MIC ([18]; HL013PA1, 48 h): 2 µg/mL (≈ 0.714 µM) | MIC ([19]; HL043PA2, 48 h): 2 µg/mL (≈ 0.714 µM) | MIC ([20]; ATCC11827, 48 h): 2 to 4 µg/mL | MIC ([21]; HL038PA1, 48 h): 2 µg/mL (≈ 0.714 µM) | MIC ([22]; HL053PA1, 48 h): 2 µg/mL (≈ 0.714 µM) | in vitro anti-bacterial activity against the C. acnes bacterial strains (in words) [23]: most active | MIC values against all C. acnes isolates ([23]; ten clinical isolates and two ATCC reference strains, 48 h): 2 to 8 µg/mL | MIC ([24]; ATCC6919, 48 h): 2 µg/mL (≈ 0.714 µM) | MIC ([25]; HL056PA1, 48 h): 2 µg/mL (≈ 0.714 µM) | Therapeutic Index (EC10 / MIC) ([26]; 8 h): 8.3 | Therapeutic Index (EC50 / MIC) ([26]; 8 h): 17.2 | EC50, concentration required to kill 50% of human keratinocytes ([27]; 8 h): 34.3 µg/mL
